Patent publication US20260176283A1, “IONIZABLE LIPIDS WITH LINEAR HEAD GROUPS” (Beam Therapeutics Inc., priority 2023, published 2026)

Assays:
[1] = LNP characterization of base editor LNP preparations (DLS diameter, PDI, encapsulation efficiency); type: physicochemical; details: Table E LNPs, formulation ratio 47.5:40:2.5:10, ABE mRNA/PCSK9 sgRNA
Method in brief: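 Lipid mix in ethanol and base-editor mRNA plus modified sgRNA (1:1 by mass, pH 4.0 citrate) were microfluidically mixed at 3:1 aqueous:organic, lipid:NA molar ratio 6, then dialysed against PBS at 4° C for 8–24 h. Diameter and PDI were measured by DLS in PBS; encapsulation was derived from unlysed versus lysed LNPs by Qubit RNA quantitation.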

PCSK9 target site = test: In vivo base editing with ABE mRNA and sgRNA targeting PCSK9; set-up: species or system Balb/c mice; details: dose 0.03 MPK (mg total RNA/kg) IV, formulation ratio 47.5:40:2.5:10, liver, 4 days after dosing
Procedure: Lipid nanoparticle components are dissolved in 100% ethanol at specified lipid component molar ratios. mRNA encoding an adenine base editor and a chemically-modified sgRNA is dissolved at a mass ratio of 1:1 in 10 mM citrate, 100 mM NaCl, pH 4.0, resulting in a concentration of NA cargo of approximately 0.22 mg/mL. LNP preparations are formulated with molar ratios of either 50% Ionizable Lipid: 38.5% Cholesterol: 1.5% PEG2000-DMG: 10% DSPC or 47.5% Ionizable Lipid: 40% Cholesterol: 2.5% PEG2000-DMG: 10% DSPC both at a total lipid to NA molar ratio of 6.
LNP preparations are formed by microfluidic mixing of the lipid and NA solutions using a Precision Nanosystems NanoAssemblr Ignite Instrument, according to the manufacturer's protocol. A 3:1 ratio of aqueous to organic solvent is maintained during mixing using differential flow rates. After mixing, LNP preparations are collected, diluted in PBS (approximately 2:1 v/v), and further buffer exchange is conducted using dialysis in PBS at 4° C. for 8 to 24 hours against a 20 kDa filter. After this initial dialysis, each individual LNP preparation is characterized via dynamic light scattering (DLS) to measure size and polydispersity. pKa of a subpopulation of LNP preparations is measured via TNS assay. After dialysis, LNP preparations are sterile filtered using 0.22 micron sterile filter and stored at 4° C. for further use. In some embodiments, LNP preparations may be concentrated using 100 kDa Amicon filters per manufacturer's protocol.
Male Balb/C mice aged approximately 8-12 weeks are used in the experiments described herein. Each mouse is temporarily restrained, and LNP preparations are administered IV via tail vein injection. Age-matched mice are also used to administer vehicle (1×PBS) via tail vein injection as a control. Four to six days post-dose, tissues including liver, spleen, heart and muscle are collected (only liver and muscle (quardracept) are reported). Genomic DNA is isolated and fragmented and adapter-ligated using the Nextera DNA Flex Library Prep Kit (Illumina) using the 96-well plate Nextera indexing primers (Illumina), according to the manufacturer's instructions. Library size and concentration is confirmed by Fragment Analyzer (Agilent) and sent to Novogene for whole genome sequencing using an Illumina HiSeq.
For base editing, mRNA encoding an adenine base editor (ABE) and a guide RNA (sgRNA) targeting PCSK9 at 1:1 (mass ratio) are coencapsulated in LNP preparations as described herein. LNP preparations are administrated into Balb/c mice through tail vein injections at concentration of 0.03 mg total RNA/kg. […] Base editing is determined by performing targeted deep sequencing analysis at the PCSK9 target site using extracted genomic DNA.

CC/C=C\CCCC(CCC/C=C\CC)OC(=O)CCCCCC(=O)OCC(COC(=O)CCCCCC(=O)OC(CCC/C=C\CC)CCC/C=C\CC)COC(=O)NCCN1CCN(C)CC1 [Compound (31), 01-[2-[[7-[(Z)-1-[(Z)-hept-4-enyl]oct-5-enoxy]-7-oxo-heptanoyl]oxymethyl]-3-[2-(4-methylpiperazin-1-yl)ethylcarbamoyloxy]propyl] O7-[(Z)-1-[(Z)-hept-4-enyl]oct-5-enyl] heptanedioate]
Diameter (nm) [1]: 103.5 nm | EE (%) [1]: 93.42% | Liver Editing A->G (%) (PCSK9 target site): 0.02%
